Converted amounts (≈) assume the structure as drawn.
How the values were obtained:
Assay type in all cases: cell-based
[1] = system: STAPHYLOCOCCUS AUREUS ATCC 6538P; assay: In vitro antibacterial activity, MIC, BHI agar dilution; conditions: S. aureus ATCC 6538P, 35-37° C., 20 to 24 hours, unit assumed
[2] = system: STAPHYLOCOCCUS AUREUS A5177; assay: as above; conditions: S. aureus A5177, unit assumed
[3] = system: STAPHYLOCOCCUS AUREUS A-5278; assay: as above; conditions: S. aureus A-5278, unit assumed
[4] = system: STAPHYLOCOCCUS AUREUS CMX 642A; assay: as above; conditions: S. aureus CMX 642A, unit assumed
[5] = system: STAPHYLOCOCCUS AUREUS NCTC10649M; assay: as above; conditions: S. aureus NCTC10649M, unit assumed
[6] = system: STAPHYLOCOCCUS AUREUS CMX 553; assay: as above; conditions: S. aureus CMX 553, unit assumed
[7] = system: STAPHYLOCOCCUS AUREUS 1775; assay: as above; conditions: S. aureus 1775, unit assumed
[8] = system: STAPHYLOCOCCUS EPIDERMIDIS 3519; conditions: S. epidermidis 3519; BHI agar; unit assumed
EN[…] ATCC 8043 = assay: In vitro antibacterial activity, MIC, BHI agar dilution; conditions: E. faecium ATCC 8043, unit assumed
Procedure, shortened: (§1)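 Twelve successive aqueous dilutions of compound in Brain Heart Infusion agar were inoculated with 1:100 culture dilutions (1:10 for slow growers such as Micrococcus, Streptococcus) by Steers replicator and incubated at 35-37° C for 20 to 24 hours. MIC was the lowest concentration giving no growth, slight haze or sparse colonies versus drug-free control.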

M[…] ATCC 4698 = assay: as above; conditions: M. luteus ATCC 4698, unit assumed
Procedure, shortened: as §1

M[…] ATCC 9341 = assay: as above; conditions: M. luteus ATCC 9341, unit assumed
Procedure, shortened: as §1

STR[…] 508 = assay: as above; conditions: S. agalactiae CMX 508, unit assumed
Procedure, shortened: as §1

[9] = system: STREPTOCOCCUS BOVIS A-5169; assay: as above; conditions: S. bovis A-5169, unit assumed
[10] = system: STREPTOCOCCUS PYOGENES EES61; assay: as above; conditions: S. pyogenes EES61, unit assumed
[11] = system: STREPTOCOCCUS PYOGENES 930; assay: as above; conditions: S. pyogenes 930, unit assumed
[12] = system: STREPTOCOCCUS PYOGENES PIU 2548; assay: as above; conditions: S. pyogenes PIU 2548, unit assumed
ESCHERICHIA COLI JUHL = conditions: E. coli JUHL; BHI agar; unit assumed
ESCHERICHIA COLI SS = assay: In vitro antibacterial activity, MIC, BHI agar dilution; conditions: E. coli SS, unit assumed
ESCHERICHIA COLI DC-2 = assay: as above; conditions: E. coli DC-2, unit assumed
ESCHERICHIA COLI H560 = assay: as above; conditions: E. coli H560, unit assumed
ESCHERICHIA COLI KNK 437 = conditions: E. coli KNK 437; BHI agar; unit assumed
[13] = system: ENTEROBACTER AEROGENES ATCC 13048; assay: In vitro antibacterial activity, MIC, BHI agar dilution; conditions: E. aerogenes ATCC 13048, unit assumed
[14] = system: KLEBSIELLA PNEUMONIAE ATCC 8045; assay: as above; conditions: K. pneumoniae ATCC 8045, unit assumed
[15] = system: PROVIDENCIA STUARTII CMX 640; conditions: P. stuartii CMX 640; BHI agar; unit assumed
[16] = system: PSEUDOMONAS AERUGINOSA BMH10; assay: In vitro antibacterial activity, MIC, BHI agar dilution; conditions: P. aeruginosa BMH10, unit assumed
[17] = system: PSEUDOMONAS AERUGINOSA 5007; assay: as above; conditions: P. aeruginosa 5007, unit assumed
[18] = system: PSEUDOMONAS AERUGINOSA K799/WT; assay: as above; conditions: P. aeruginosa K799/WT, unit assumed
[19] = system: PSEUDOMONAS AERUGINOSA K799/61; assay: as above; conditions: P. aeruginosa K799/61, unit assumed
PSEUDOMONAS CEPACIA 296I = assay: as above; conditions: P. cepacia 296I, unit assumed
[20] = system: PSEUDOMONAS AERUGINOSA DPHD-5263; assay: as above; conditions: P. aeruginosa DPHD-5263, unit assumed
[21] = system: PSEUDOMONAS AERUGINOSA DPHD-2862; assay: as above; conditions: P. aeruginosa DPHD-2862, unit assumed
CANDIDA ALBICANS CCH 442 = assay: as above; conditions: C. albicans CCH 442, unit assumed
[22] = system: MYCOBACTERIUM SMEGMATIS ATCC 114; assay: as above; conditions: M. smegmatis ATCC 114, unit assumed

Row | SMILES | MIC [1] | MIC [2] | MIC [3] | MIC [4] | MIC [5] | MIC [6] | MIC [7] | MIC [8] | MIC (EN[…] ATCC 8043) | MIC (M[…] ATCC 4698) | MIC (M[…] ATCC 9341) | MIC (STR[…] 508) | MIC [9] | MIC [10] | MIC [11] | MIC [12] | MIC (ESCHERICHIA COLI JUHL) | MIC (ESCHERICHIA COLI SS) | MIC (ESCHERICHIA COLI DC-2) | MIC (ESCHERICHIA COLI H560) | also measured
1 | CC[C@H]1OC(=O)[C@H](C)C(=O)[C@H](C)[C@@H](O[C@@H]2O[C@H](C)C[C@H](N(C)C)[C@H]2O)[C@](C)(OC)C[C@@H](C)C2=NCC(COC(=O)c3ccc(Cl)cc3)N3C(=O)O[C@@]1(C)[C@H]3[C@H]2C (stereo partly drawn) [Example 141] | 0.1 µg/mL (≈ 0.124 µM) | 0.1 µg/mL (≈ 0.124 µM) | 50 µg/mL (≈ 62 µM) | 0.1 µg/mL (≈ 0.124 µM) | 0.1 µg/mL (≈ 0.124 µM) | 0.1 µg/mL (≈ 0.124 µM) | 50 µg/mL (≈ 62 µM) | 0.1 µg/mL (≈ 0.124 µM) | 0.02 µg/mL (≈ 0.0248 µM) | 0.1 µg/mL (≈ 0.124 µM) | 0.01 µg/mL (≈ 0.0124 µM) | 0.02 µg/mL (≈ 0.0248 µM) | ≤ 0.005 µg/mL | ≤ 0.005 µg/mL | 50 µg/mL (≈ 62 µM) | 0.2 µg/mL (≈ 0.248 µM) | 50 µg/mL (≈ 62 µM) | 0.78 µg/mL (≈ 0.967 µM) | 50 µg/mL (≈ 62 µM) | 12.5 µg/mL (≈ 15.5 µM) | MIC (ESCHERICHIA COLI KNK 437): 50 µg/mL (≈ 62 µM); MIC [13]: > 100 µg/mL; MIC [14]: 100 µg/mL (≈ 124 µM); MIC [15]: > 100 µg/mL; MIC [16]: 100 µg/mL (≈ 124 µM); MIC [17]: > 100 µg/mL; MIC [18]: > 100 µg/mL; MIC [19]: 1.56 µg/mL (≈ 1.93 µM); MIC (PSEUDOMONAS CEPACIA 296I): 25 µg/mL (≈ 31 µM); MIC [20]: > 100 µg/mL; MIC [21]: > 100 µg/mL; MIC (CANDIDA ALBICANS CCH 442): > 100 µg/mL; MIC [22]: 0.2 µg/mL (≈ 0.248 µM)
2 | CC[C@H]1OC(=O)[C@H](C)C(=O)[C@H](C)[C@@H](O[C@@H]2O[C@H](C)C[C@H](N(C)C)[C@H]2O)[C@](C)(OC)C[C@@H](C)C2=NCC(COC(=O)c3ccc4ccccc4n3)N3C(=O)O[C@@]1(C)[C@H]3[C@H]2C (stereo partly drawn) [Example 142] | 0.2 µg/mL (≈ 0.243 µM) | 0.2 µg/mL (≈ 0.243 µM) | > 100 µg/mL | 0.2 µg/mL (≈ 0.243 µM) | 0.2 µg/mL (≈ 0.243 µM) | 0.2 µg/mL (≈ 0.243 µM) | > 100 µg/mL | 0.2 µg/mL (≈ 0.243 µM) | 0.1 µg/mL (≈ 0.122 µM) | 0.1 µg/mL (≈ 0.122 µM) | 0.02 µg/mL (≈ 0.0243 µM) | 0.01 µg/mL (≈ 0.0122 µM) | 0.01 µg/mL (≈ 0.0122 µM) | 0.01 µg/mL (≈ 0.0122 µM) | > 100 µg/mL | 0.39 µg/mL (≈ 0.474 µM) | 50 µg/mL (≈ 60.8 µM) | 1.56 µg/mL (≈ 1.9 µM) | 25 µg/mL (≈ 30.4 µM) | 25 µg/mL (≈ 30.4 µM) | MIC (ESCHERICHIA COLI KNK 437): 100 µg/mL (≈ 122 µM); MIC [13]: > 100 µg/mL; MIC [14]: > 100 µg/mL; MIC [15]: > 100 µg/mL; MIC [16]: > 100 µg/mL; MIC [17]: > 100 µg/mL; MIC [18]: > 100 µg/mL; MIC [19]: 1.56 µg/mL (≈ 1.9 µM); MIC (PSEUDOMONAS CEPACIA 296I): > 100 µg/mL; MIC [20]: > 100 µg/mL; MIC [21]: > 100 µg/mL; MIC (CANDIDA ALBICANS CCH 442): > 100 µg/mL; MIC [22]: 1.56 µg/mL (≈ 1.9 µM)
3 | CC[C@H]1OC(=O)[C@H](C)C(=O)[C@H](C)[C@@H](O[C@@H]2O[C@H](C)C[C@H](N(C)C)[C@H]2O)[C@](C)(OC)C[C@@H](C)C2=NCC(COC(=O)c3cc4ccccc4n3C)N3C(=O)O[C@@]1(C)[C@H]3[C@H]2C (stereo partly drawn) [Example 143] | 0.1 µg/mL (≈ 0.121 µM) | 0.2 µg/mL (≈ 0.242 µM) | 50 µg/mL (≈ 60.6 µM) | 0.2 µg/mL (≈ 0.242 µM) | 0.2 µg/mL (≈ 0.242 µM) | 0.2 µg/mL (≈ 0.242 µM) | 50 µg/mL (≈ 60.6 µM) | 0.2 µg/mL (≈ 0.242 µM) | 0.02 µg/mL (≈ 0.0242 µM) | 0.2 µg/mL (≈ 0.242 µM) | 0.01 µg/mL (≈ 0.0121 µM) | 0.02 µg/mL (≈ 0.0242 µM) | 0.01 µg/mL (≈ 0.0121 µM) | 0.02 µg/mL (≈ 0.0242 µM) | 50 µg/mL (≈ 60.6 µM) | 0.39 µg/mL (≈ 0.473 µM) | 50 µg/mL (≈ 60.6 µM) | 0.78 µg/mL (≈ 0.945 µM) | 50 µg/mL (≈ 60.6 µM) | 25 µg/mL (≈ 30.3 µM) | MIC (ESCHERICHIA COLI KNK 437): 50 µg/mL (≈ 60.6 µM); MIC [13]: > 100 µg/mL; MIC [14]: > 100 µg/mL; MIC [15]: > 100 µg/mL; MIC [16]: > 100 µg/mL; MIC [17]: > 100 µg/mL; MIC [18]: > 100 µg/mL; MIC [19]: 1.56 µg/mL (≈ 1.89 µM); MIC (PSEUDOMONAS CEPACIA 296I): 50 µg/mL (≈ 60.6 µM); MIC [20]: > 100 µg/mL; MIC [21]: > 100 µg/mL; MIC (CANDIDA ALBICANS CCH 442): 100 µg/mL (≈ 121 µM); MIC [22]: 0.2 µg/mL (≈ 0.242 µM)
4 | CC[C@H]1OC(=O)[C@H](C)C(=O)[C@H](C)[C@@H](O[C@@H]2O[C@H](C)C[C@H](N(C)C)[C@H]2O)[C@](C)(OC)C[C@@H](C)C2=NCC(COC(=O)c3cccc4[nH]ccc34)N3C(=O)O[C@@]1(C)[C@H]3[C@H]2C (stereo partly drawn) [Example 144] | 0.1 µg/mL (≈ 0.123 µM) | 0.1 µg/mL (≈ 0.123 µM) | > 100 µg/mL | 0.1 µg/mL (≈ 0.123 µM) | 0.1 µg/mL (≈ 0.123 µM) | 0.1 µg/mL (≈ 0.123 µM) | > 100 µg/mL | 0.1 µg/mL (≈ 0.123 µM) | 0.1 µg/mL (≈ 0.123 µM) | 0.1 µg/mL (≈ 0.123 µM) | 0.01 µg/mL (≈ 0.0123 µM) | ≤ 0.005 µg/mL | ≤ 0.005 µg/mL | ≤ 0.005 µg/mL | 100 µg/mL (≈ 123 µM) | 0.39 µg/mL (≈ 0.481 µM) | 50 µg/mL (≈ 61.7 µM) | 0.78 µg/mL (≈ 0.962 µM) | 50 µg/mL (≈ 61.7 µM) | 50 µg/mL (≈ 61.7 µM) | MIC (ESCHERICHIA COLI KNK 437): 50 µg/mL (≈ 61.7 µM); MIC [13]: 100 µg/mL (≈ 123 µM); MIC [14]: 100 µg/mL (≈ 123 µM); MIC [15]: > 100 µg/mL; MIC [16]: > 100 µg/mL; MIC [17]: > 100 µg/mL; MIC [18]: > 100 µg/mL; MIC [19]: 0.78 µg/mL (≈ 0.962 µM); MIC (PSEUDOMONAS CEPACIA 296I): 50 µg/mL (≈ 61.7 µM); MIC [20]: > 100 µg/mL; MIC [21]: > 100 µg/mL; MIC (CANDIDA ALBICANS CCH 442): > 100 µg/mL; MIC [22]: 1.56 µg/mL (≈ 1.92 µM)

— patent US6274715A, “Tricyclic erythromycin derivatives” (priority 1997, dated 2001)
